# Data from PubChem BioAssay AID1963873 (Molecular Pharmacology Branch, DTP, NCI, 2024).
# Test system: 276233-004-R-J1-PDC KRAS spheroids with HUVEC/MSC, viability
# Assay: Anticancer human tumor 276233-004-R-J1-PDC patient-derived colon adenocarcinoma cell line growth inhibition [KRAS2]
# Conditions: for IC50: curve of first compound; for viability, T/C: stronger effect = lower value
# Procedure, shortened: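 KRAS-mutant tumor cells were grown as spheroids with HUVEC endothelial cells and human MSCs as stroma. Targeted agents were tested alone and with KRAS pathway inhibitors. Doses started at or near clinical Cmax, or 10 microM, descending half-log.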
# [1] = second compound 0.1 µM, first compound 0.000316 µM
# [2] = second compound 0.1 µM, first compound 0.001 µM
# [3] = second compound 0.1 µM, first compound 0.00316 µM
# [4] = second compound 0.1 µM, first compound 0.01 µM
# [5] = second compound 0.1 µM, first compound 0.0316 µM
# [6] = second compound 0.1 µM, first compound 0.1 µM
# [7] = second compound 0.316 µM, first compound 0.000316 µM
# [8] = second compound 0.316 µM, first compound 0.001 µM
# [9] = second compound 0.316 µM, first compound 0.00316 µM
# [10] = second compound 0.316 µM, first compound 0.01 µM
# [11] = second compound 0.316 µM, first compound 0.0316 µM
# [12] = second compound 0.316 µM, first compound 0.1 µM
# [13] = second compound 1 µM, first compound 0.000316 µM
# [14] = second compound 1 µM, first compound 0.001 µM
# [15] = second compound 1 µM, first compound 0.00316 µM
# [16] = second compound 1 µM, first compound 0.01 µM
# [17] = second compound 1 µM, first compound 0.0316 µM
# [18] = second compound 1 µM, first compound 0.1 µM
# [19] = second compound 3.16 µM, first compound 0.000316 µM
# [20] = second compound 3.16 µM, first compound 0.001 µM
# [21] = second compound 3.16 µM, first compound 0.00316 µM
# [22] = second compound 3.16 µM, first compound 0.01 µM
# [23] = second compound 3.16 µM, first compound 0.0316 µM
# [24] = second compound 3.16 µM, first compound 0.1 µM
# [25] = second compound 10 µM, first compound 0.0316 µM
# [26] = second compound 10 µM, first compound 0.1 µM
# [27] = second compound 0.1 µM, first compound 0.316 µM
# [28] = second compound 0.1 µM, first compound 1 µM
# [29] = second compound 0.1 µM, first compound 3.16 µM
# [30] = second compound 0.1 µM, first compound 10 µM
# [31] = second compound 0.316 µM, first compound 0.316 µM
# [32] = second compound 0.316 µM, first compound 1 µM
# [33] = second compound 0.316 µM, first compound 3.16 µM
# [34] = second compound 0.316 µM, first compound 10 µM
# [35] = second compound 1 µM, first compound 0.316 µM
# [36] = second compound 1 µM, first compound 1 µM
# [37] = second compound 1 µM, first compound 3.16 µM
# [38] = second compound 1 µM, first compound 10 µM
# [39] = second compound 3.16 µM, first compound 0.316 µM
# [40] = second compound 3.16 µM, first compound 1 µM
# [41] = second compound 3.16 µM, first compound 3.16 µM
# [42] = second compound 3.16 µM, first compound 10 µM
# [43] = second compound 10 µM, first compound 0.316 µM
# [44] = second compound 10 µM, first compound 1 µM
# [45] = second compound 10 µM, first compound 3.16 µM
# [46] = second compound 10 µM, first compound 10 µM
# 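Also: cells exposed to agents for seven days before viability read.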
# 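For viability, T/C in this document: 100% = DMSO vehicle control wells and lower values mean fewer viable cells.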
compound,measurement,setting,value
CC(C)n1nc(-c2ccc3oc(N)nc3c2)c2c(N)ncnc21 + COc1cc2nc(C)nc(NC(C)c3cc(N)cc(C(F)(F)F)c3)c2cc1OC1CCOC1,IC50,second compound 0.1 µM,> 100 nM
same,IC50,second compound 0.316 µM,> 100 nM
same,IC50,second compound 1 µM,42.6 nM
same,IC50,second compound 3.16 µM,> 100 nM
same,IC50,second compound 10 µM,< 0.316 nM
same,"viability, T/C",[1],90.1%
same,"viability, T/C",[2],120%
same,"viability, T/C",[3],76.7%
same,"viability, T/C",[4],68%
same,"viability, T/C",[5],64.7%
same,"viability, T/C",[6],50.8%
same,"viability, T/C",[7],109%
same,"viability, T/C",[8],86.3%
same,"viability, T/C",[9],71.6%
same,"viability, T/C",[10],70.9%
same,"viability, T/C",[11],68%
same,"viability, T/C",[12],56.5%
same,"viability, T/C",[13],108%
same,"viability, T/C",[14],92.5%
same,"viability, T/C",[15],86.5%
same,"viability, T/C",[16],56.8%
same,"viability, T/C",[17],54.5%
same,"viability, T/C",[18],46%
same,"viability, T/C",[19],76.7%
same,"viability, T/C",[20],83.4%
same,"viability, T/C",[21],76.4%
same,"viability, T/C",[22],61.9%
same,"viability, T/C",[23],63.2%
same,"viability, T/C",[24],50.3%
same,"viability, T/C","second compound 10 µM, first compound 0.000316 µM",18.3%
same,"viability, T/C","second compound 10 µM, first compound 0.001 µM",22.9%
same,"viability, T/C","second compound 10 µM, first compound 0.00316 µM",19.1%
same,"viability, T/C","second compound 10 µM, first compound 0.01 µM",32.5%
same,"viability, T/C",[25],32.2%
same,"viability, T/C",[26],29.3%
CC1(C)CCC(CN2CCN(c3ccc(C(=O)NS(=O)(=O)c4ccc(NCC5CCOCC5)c([N+](=O)[O-])c4)c(Oc4cnc5[nH]ccc5c4)c3)CC2)=C(c2ccc(Cl)cc2)C1 + CNCc1ccccc1-c1csc(C(C)Nc2nc(C)nc3cc(OC)c(OC)cc23)c1,IC50,second compound 0.1 µM,> 10000 nM
same,IC50,second compound 0.316 µM,7260 nM
same,IC50,second compound 1 µM,> 10000 nM
same,IC50,second compound 3.16 µM,< 31.6 nM
same,IC50,second compound 10 µM,< 31.6 nM
same,"viability, T/C",[5],81.9%
same,"viability, T/C",[6],111%
same,"viability, T/C",[27],105%
same,"viability, T/C",[28],75.4%
same,"viability, T/C",[29],79.5%
same,"viability, T/C",[30],67.3%
same,"viability, T/C",[11],102%
same,"viability, T/C",[12],94.9%
same,"viability, T/C",[31],77.5%
same,"viability, T/C",[32],103%
same,"viability, T/C",[33],69.9%
same,"viability, T/C",[34],42.3%
same,"viability, T/C",[17],110%
same,"viability, T/C",[18],51.5%
same,"viability, T/C",[35],65.7%
same,"viability, T/C",[36],59.4%
same,"viability, T/C",[37],58.5%
same,"viability, T/C",[38],42%
same,"viability, T/C",[23],0.58%
same,"viability, T/C",[24],0.56%
same,"viability, T/C",[39],0.78%
same,"viability, T/C",[40],0.7%
same,"viability, T/C",[41],0.34%
same,"viability, T/C",[42],1.88%
same,"viability, T/C",[25],0.18%
same,"viability, T/C",[26],0.21%
same,"viability, T/C",[43],0.17%
same,"viability, T/C",[44],0.17%
same,"viability, T/C",[45],0.39%
same,"viability, T/C",[46],0.28%
COc1cc(Nc2ncc3c(n2)-c2ccc(Cl)cc2C(c2c(F)cccc2OC)=NC3)ccc1C(=O)O + COc1cc2nc(C)nc(NC(C)c3cc(N)cc(C(F)(F)F)c3)c2cc1OC1CCOC1,IC50,second compound 0.1 µM,> 10000 nM
same,IC50,second compound 0.316 µM,> 10000 nM
same,IC50,second compound 1 µM,> 10000 nM
same,IC50,second compound 3.16 µM,> 10000 nM
same,IC50,second compound 10 µM,< 31.6 nM
same,"viability, T/C",[5],79.9%
same,"viability, T/C",[6],78.9%
same,"viability, T/C",[27],74.3%
same,"viability, T/C",[28],68%
same,"viability, T/C",[29],61.6%
same,"viability, T/C",[30],57.1%
same,"viability, T/C",[11],83.3%
same,"viability, T/C",[12],69.9%
same,"viability, T/C",[31],70.9%
same,"viability, T/C",[32],69.5%
same,"viability, T/C",[33],67.2%
same,"viability, T/C",[34],54.6%
same,"viability, T/C",[17],91.7%
same,"viability, T/C",[18],67.4%
same,"viability, T/C",[35],63.5%
same,"viability, T/C",[36],68%
same,"viability, T/C",[37],58.4%
same,"viability, T/C",[38],55.2%
same,"viability, T/C",[23],70%
same,"viability, T/C",[24],60.4%
same,"viability, T/C",[39],56.6%
same,"viability, T/C",[40],54.1%
same,"viability, T/C",[41],74.6%
same,"viability, T/C",[42],57.4%
same,"viability, T/C",[25],29.1%
same,"viability, T/C",[26],37.9%
same,"viability, T/C",[43],30.9%
same,"viability, T/C",[44],21.2%
same,"viability, T/C",[45],31.4%
same,"viability, T/C",[46],17.6%
COc1cc(Nc2ncc3c(n2)-c2ccc(Cl)cc2C(c2c(F)cccc2OC)=NC3)ccc1C(=O)O + CC1OCC2(CCN(c3cnc(Sc4ccnc(N)c4Cl)c(N)n3)CC2)C1N,IC50,second compound 0.1 µM,> 10000 nM
same,IC50,second compound 0.316 µM,> 10000 nM
same,IC50,second compound 1 µM,> 10000 nM
same,IC50,second compound 3.16 µM,865 nM
same,IC50,second compound 10 µM,< 31.6 nM
same,"viability, T/C",[5],107%
same,"viability, T/C",[6],85.6%
same,"viability, T/C",[27],86%
same,"viability, T/C",[28],75.6%
same,"viability, T/C",[29],99%
same,"viability, T/C",[30],68.5%
same,"viability, T/C",[11],83.9%
same,"viability, T/C",[12],82.5%
same,"viability, T/C",[31],84.7%
same,"viability, T/C",[32],82.4%
same,"viability, T/C",[33],67.1%
same,"viability, T/C",[34],64%
same,"viability, T/C",[17],75%
same,"viability, T/C",[18],73.8%
same,"viability, T/C",[35],75.2%
same,"viability, T/C",[36],74.9%
same,"viability, T/C",[37],65%
same,"viability, T/C",[38],52.2%
same,"viability, T/C",[23],61%
same,"viability, T/C",[24],51.1%
same,"viability, T/C",[39],51.3%
same,"viability, T/C",[40],55.2%
same,"viability, T/C",[41],44.4%
same,"viability, T/C",[42],45.2%
same,"viability, T/C",[25],46.5%
same,"viability, T/C",[26],49.2%
same,"viability, T/C",[43],41.9%
same,"viability, T/C",[44],42%
same,"viability, T/C",[45],54%
same,"viability, T/C",[46],48%
CC(=O)Nc1cccc(-n2c(=O)n(C3CC3)c(=O)c3c(Nc4ccc(I)cc4F)n(C)c(=O)c(C)c32)c1 + C=CC(=O)N1CCN(c2nc(OCC3CCCN3C)nc3c2CCN(c2cccc4cccc(C)c24)C3)CC1CC#N,IC50,second compound 0.0316 µM,7.53 nM
same,IC50,second compound 0.1 µM,9.05 nM
same,IC50,second compound 0.316 µM,4.73 nM
same,IC50,second compound 1 µM,2.49 nM
same,IC50,second compound 3.16 µM,0.141 nM
same,"viability, T/C","second compound 0.0316 µM, first compound 0.0001 µM",79.5%
same,"viability, T/C","second compound 0.0316 µM, first compound 0.000316 µM",92.4%
same,"viability, T/C","second compound 0.0316 µM, first compound 0.001 µM",81.2%
same,"viability, T/C","second compound 0.0316 µM, first compound 0.00316 µM",66.9%
same,"viability, T/C","second compound 0.0316 µM, first compound 0.01 µM",44.9%
same,"viability, T/C","second compound 0.0316 µM, first compound 0.0316 µM",16.8%
same,"viability, T/C","second compound 0.1 µM, first compound 0.0001 µM",82.2%
same,"viability, T/C",[1],86.3%
same,"viability, T/C",[2],72.8%
same,"viability, T/C",[3],63.1%
same,"viability, T/C",[4],50.4%
same,"viability, T/C",[5],22.6%
same,"viability, T/C","second compound 0.316 µM, first compound 0.0001 µM",76.1%
same,"viability, T/C",[7],83.7%
same,"viability, T/C",[8],61.6%
same,"viability, T/C",[9],64.7%
same,"viability, T/C",[10],31.5%
same,"viability, T/C",[11],10%
same,"viability, T/C","second compound 1 µM, first compound 0.0001 µM",93.3%
same,"viability, T/C",[13],95.9%
same,"viability, T/C",[14],60.6%
same,"viability, T/C",[15],47%
same,"viability, T/C",[16],25.4%
same,"viability, T/C",[17],7%
same,"viability, T/C","second compound 3.16 µM, first compound 0.0001 µM",57.5%
same,"viability, T/C",[19],32.3%
same,"viability, T/C",[20],16.7%
same,"viability, T/C",[21],14.7%
same,"viability, T/C",[22],4.17%
same,"viability, T/C",[23],3.27%
